This is an account of results in the supplement of paper PMC11061612.

Each structure is given as a SMILES string.

The subject of assay [1] is HCC-44 (Lung Adenocarcinoma). Description: Bliss excess, mean over the matrix (fraction); higher = more synergy. In a few lines: (§1)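 Cell lines in DMEM/F12 or RPMI with 10% FBS were plated in 1536-well plates, held 24 hours at 37°C, 5% CO2, then given two-drug dose matrices for 72 hours (DMSO typically 0.2%). Viability was read by CellTiter-Glo 2.0 luminescence and scaled as inhibition from 0 (vehicle wells) to 1 (blank wells). Combination Emax is the second-highest inhibition in the matrix; Bliss excess is observed combination effect minus expected EA + EB − EA·EB, EA and EB being single-agent effects.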

In assay [2] the test system is SW684 (Other Solid Carcinomas). In words: combination Emax (second highest fraction inhibited in the dose matrix, 72 h); higher = more inhibition; extreme values may be limits of the assay. In a few lines: as §1
Assay [3] relates to AsPC-1 (Pancreatic Carcinoma). The assay is described as above. In a few lines:
as §1

Assay [4] deals with HCC-44 (Lung Adenocarcinoma). The assay is described as above. In a few lines: as §1
For assay [5], the system named is RERF-LC-KJ (Lung Adenocarcinoma). The description is as above. In a few lines: as §1
Assay [6] has as its system PANC-02-03 (Pancreatic Carcinoma). The description is as above. In a few lines:
as §1
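For Bliss excess, mean over the matrix in this document: after 72 h of two-drug dosing.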

For the compound `CN(C)CCCOc1ccc(-c2ccc3ncc4c(c3c2)n(C2CCOCC2)c(=O)n4C)cn1` [AZD0156] + O=C(c1cc(Cc2n[nH]c(=O)c3ccccc23)ccc1F)N1CCN(C(=O)C2CC2)CC1 [Olaparib] (first compound max 3 µM, partner max 3 µM), the Bliss excess in assay [1] came out at 0.0947. The “combination Emax” value in assay [2] turned out to be 0.141; in assay [3], 0.297; in assay [4], 0.456; in assay [5], 0.368; in assay [6], 0.248.
For the compound `C=CCn1c(=O)c2cnc(Nc3ccc(N4CCN(C)CC4)cc3)nc2n1-c1cccc(C(C)(C)O)n1` [AZD1775] + C1CN(CCC1(C(=O)N[C@@H](CCO)C2=CC=C(C=C2)Cl)N)C3=NC=NC4=C3C=CN4 [Capivasertib] (first compound max 3 µM, partner max 3 µM), the Bliss excess in assay [1] was -0.0109. The “combination Emax” value in assay [2] is 0.467; in assay [3], 0.505; in assay [4] it was 0.844; in assay [5], 0.548; in assay [6], 0.605.
`COc1nnc2ccc(N3CCC(c4ccc(OCCN5CCN(C)C(=O)[C@H]5C)cc4)CC3)nn12` [AZD5153] + C=CCn1c(=O)c2cnc(Nc3ccc(N4CCN(C)CC4)cc3)nc2n1-c1cccc(C(C)(C)O)n1 [AZD1775] (first compound max 1 µM, partner max 1 µM): in assay [1], the Bliss excess is -0.0787. In addition, the “combination Emax” value worked out at 0.452 in assay [2]; 0.381 in assay [3]; 0.63 in assay [4]; 0.957 in assay [5]; 0.645 in assay [6].
In the case of `COc1nnc2ccc(N3CCC(c4ccc(OCCN5CCN(C)C(=O)[C@H]5C)cc4)CC3)nn12` [AZD5153] + CC1(C)CCC(CN2CCN(c3ccc(C(=O)NS(=O)(=O)c4ccc(NCC5CCOCC5)c([N+](=O)[O-])c4)c(Oc4cnc5[nH]ccc5c4)c3)CC2)=C(c2ccc(Cl)cc2)C1 [Venetoclax] (first compound max 1 µM, 7x7, partner max 1 µM), the Bliss excess in assay [1] was -0.0395. Further, the “combination Emax” value in assay [2] amounted to 0.531; in assay [3], 0.176; in assay [4], 0.615; in assay [5] it was 0.971; in assay [6] it was 0.582.
As to `COc1nnc2ccc(N3CCC(c4ccc(OCCN5CCN(C)C(=O)[C@H]5C)cc4)CC3)nn12` [AZD5153] + CCN(CCO)CCCOc1ccc2c(Nc3cc(CC(=O)Nc4cccc(F)c4)[nH]n3)ncnc2c1 [AZD2811] (first compound max 1 µM, 7x7, partner max 1 µM), the Bliss excess in assay [1] is -0.0338. In addition, the “combination Emax” value in assay [2] turned out to be 0.502; in assay [3], 0.258; in assay [4], 0.617; in assay [5], 0.971; in assay [6] it was 0.592.
As to `COc1nnc2ccc(N3CCC(c4ccc(OCCN5CCN(C)C(=O)[C@H]5C)cc4)CC3)nn12` [AZD5153] + C[C@@H]1COCCN1C2=NC(=NC(=C2)C3(CC3)[S@](=N)(=O)C)C4=C5C=CNC5=NC=C4 [AZD6738] (first compound max 1 µM, 7x7, partner max 10 µM), the Bliss excess in assay [1] was 0.0139. For the same compound, the “combination Emax” value is 0.464 in assay [2]; 0.367 in assay [3]; 0.726 in assay [4]; 0.968 in assay [5]; 0.727 in assay [6].
On to `COc1nnc2ccc(N3CCC(c4ccc(OCCN5CCN(C)C(=O)[C@H]5C)cc4)CC3)nn12` [AZD5153] + Cc1c2c(nn1C)CSCc1cc(n(C)n1)CSc1cc(c3ccccc3c1)OCCCc1c(C(=O)O)n(C)c3c-2c(Cl)ccc13 [AZD5991] (first compound max 1 µM, 7x7, partner max 1 µM), for which, in assay [1], the Bliss excess is -0.0332. Moreover, the “combination Emax” value in assay [2] worked out at 0.46; in assay [3] it was 0.258; in assay [4], 0.756; in assay [5], 0.979; in assay [6], 0.595.
With `COc1nnc2ccc(N3CCC(c4ccc(OCCN5CCN(C)C(=O)[C@H]5C)cc4)CC3)nn12` [AZD5153] + Cn1cnc2c(F)c(Nc3ccc(Br)cc3Cl)c(C(=O)NOCCO)cc21 [Selumetinib] (first compound max 1 µM, 7x7, partner max 10 µM), in assay [1], the Bliss excess stood at 0.0636. The “combination Emax” value in assay [2] is 0.531; in assay [3], 0.595; in assay [4], 0.728; in assay [5], 0.868; in assay [6], 0.866.
As for `NC1(C(=O)N[C@@H](CCO)c2ccc(Cl)cc2)CCN(c2ncnc3[nH]ccc23)CC1` [Capivasertib] + CC(=O)c1c(C)c2cnc(Nc3ccc(N4CCNCC4)cn3)nc2n(C2CCCC2)c1=O [Palbociclib] (first compound max 10 µM, 7x7, partner max 10 µM), in assay [1], the Bliss excess is -0.0161. The “combination Emax” value in assay [2] was 0.54; in assay [3], 0.396; in assay [4], 0.641; in assay [5] it was 0.436; in assay [6] it was 0.202.
For the compound `NC1(C(=O)N[C@@H](CCO)c2ccc(Cl)cc2)CCN(c2ncnc3[nH]ccc23)CC1` [Capivasertib] + CC(C)n1c(=O)n(C)c2cnc3cc(F)c(-c4ccc(OCCCN5CCCCC5)nc4)cc3c21 [AZD1390] (first compound max 10 µM, 7x7, partner max 0.3 µM), in assay [1], the Bliss excess was -0.0359. For the same compound, the “combination Emax” value in assay [2] was 0.536; in assay [3], 0.208; in assay [4], 0.602; in assay [5] it was 0.449; in assay [6], 0.192.
Consider `NC1(C(=O)N[C@@H](CCO)c2ccc(Cl)cc2)CCN(c2ncnc3[nH]ccc23)CC1` [Capivasertib] + CCN(CCO)CCCOc1ccc2c(Nc3cc(CC(=O)Nc4cccc(F)c4)[nH]n3)ncnc2c1 [AZD2811] (first compound max 10 µM, 7x7, partner max 1 µM), for which, in assay [1], the Bliss excess is -0.0388. Moreover, the “combination Emax” value in assay [2] amounted to 0.617; in assay [3], 0.233; in assay [4], 0.663; in assay [5], 0.503; in assay [6], 0.24.
Turning to `NC1(C(=O)N[C@@H](CCO)c2ccc(Cl)cc2)CCN(c2ncnc3[nH]ccc23)CC1` [Capivasertib] + COc1nnc2ccc(N3CCC(c4ccc(OCCN5CCN(C)C(=O)[C@H]5C)cc4)CC3)nn12 [AZD5153] (first compound max 10 µM, 7x7, partner max 1 µM), the Bliss excess in assay [1] was -0.0278. The “combination Emax” value in assay [2] worked out at 0.579; in assay [3], 0.268; in assay [4] it was 0.704; in assay [5] it was 0.877; in assay [6] it was 0.602.
Regarding `NC1(C(=O)N[C@@H](CCO)c2ccc(Cl)cc2)CCN(c2ncnc3[nH]ccc23)CC1` [Capivasertib] + C[C@@H]1COCCN1C2=NC(=NC(=C2)C3(CC3)[S@](=N)(=O)C)C4=C5C=CNC5=NC=C4 [AZD6738] (first compound max 10 µM, 7x7, partner max 10 µM), in assay [1], the Bliss excess is -0.0298. Further, the “combination Emax” value stood at 0.587 in assay [2]; 0.329 in assay [3]; 0.661 in assay [4]; 0.478 in assay [5]; 0.474 in assay [6].
As for `CC(=O)Nc1cccc(-n2c(=O)n(C3CC3)c(=O)c3c(Nc4ccc(I)cc4F)n(C)c(=O)c(C)c32)c1` [Trametinib] + Cc1nc(-c2cn3c(n2)-c2ccc(-c4cnn(C(C)(C)C(N)=O)c4)cc2OCC3)n(C(C)C)n1 [Taselisib] (first compound max 1 µM, 7x7, partner max 10 µM), the “combination Emax” value in assay [2] worked out at 0.929; in assay [3], 0.608; in assay [5], 0.727; in assay [6] it was 0.939.
The corresponding values for `CC1(C)CCC(CN2CCN(c3ccc(C(=O)NS(=O)(=O)c4ccc(NCC5CCOCC5)c([N+](=O)[O-])c4)c(Oc4cnc5[nH]ccc5c4)c3)CC2)=C(c2ccc(Cl)cc2)C1` [Venetoclax] + C1CN(CCC1(C(=O)N[C@@H](CCO)C2=CC=C(C=C2)Cl)N)C3=NC=NC4=C3C=CN4 [Capivasertib] (first compound max 1 µM, 7x7, partner max 3 µM) are 0.392, 0.207, 0.377 and 0.189.
On the same counts, the results for `CC1(C)CCC(CN2CCN(c3ccc(C(=O)NS(=O)(=O)c4ccc(NCC5CCOCC5)c([N+](=O)[O-])c4)c(Oc4cnc5[nH]ccc5c4)c3)CC2)=C(c2ccc(Cl)cc2)C1` [Venetoclax] + C=CCn1c(=O)c2cnc(Nc3ccc(N4CCN(C)CC4)cc3)nc2n1-c1cccc(C(C)(C)O)n1 [AZD1775] (first compound max 1 µM, partner max 1 µM) are 0.604, 0.282, 0.283 and 0.494.
As for `CC1(C)CCC(CN2CCN(c3ccc(C(=O)NS(=O)(=O)c4ccc(NCC5CCOCC5)c([N+](=O)[O-])c4)c(Oc4cnc5[nH]ccc5c4)c3)CC2)=C(c2ccc(Cl)cc2)C1` [Venetoclax] + CCN(CCO)CCCOc1ccc2c(Nc3cc(CC(=O)Nc4cccc(F)c4)[nH]n3)ncnc2c1 [AZD2811] (first compound max 1 µM, 7x7, partner max 1 µM), the “combination Emax” value amounted to 0.275 in assay [2], 0.154 in assay [3], 0.298 in assay [5] and 0.217 in assay [6].
The corresponding values for `CC1(C)CCC(CN2CCN(c3ccc(C(=O)NS(=O)(=O)c4ccc(NCC5CCOCC5)c([N+](=O)[O-])c4)c(Oc4cnc5[nH]ccc5c4)c3)CC2)=C(c2ccc(Cl)cc2)C1` [Venetoclax] + CN(C)CCCOc1ccc(-c2ccc3ncc4c(c3c2)n(C2CCOCC2)c(=O)n4C)cn1 [AZD0156] (first compound max 1 µM, 7x7, partner max 1 µM) are 0.284, 0.193, 0.278 and 0.194.
On the same counts, the results for `CC1(C)CCC(CN2CCN(c3ccc(C(=O)NS(=O)(=O)c4ccc(NCC5CCOCC5)c([N+](=O)[O-])c4)c(Oc4cnc5[nH]ccc5c4)c3)CC2)=C(c2ccc(Cl)cc2)C1` [Venetoclax] + COc1cc(Nc2ncc3c(n2)-c2ccc(Cl)cc2C(c2c(F)cccc2OC)=NC3)ccc1C(=O)O [Alisertib] (first compound max 1 µM, 7x7, partner max 10 µM) are 0.253, 0.136, 0.48 and 0.292.
On the same counts, the results for `CC1(C)CCC(CN2CCN(c3ccc(C(=O)NS(=O)(=O)c4ccc(NCC5CCOCC5)c([N+](=O)[O-])c4)c(Oc4cnc5[nH]ccc5c4)c3)CC2)=C(c2ccc(Cl)cc2)C1` [Venetoclax] + C[C@@H]1COCCN1C2=NC(=NC(=C2)C3(CC3)[S@](=N)(=O)C)C4=C5C=CNC5=NC=C4 [AZD6738] (first compound max 1 µM, 7x7, partner max 10 µM) are 0.48, 0.264, 0.313 and 0.508.
As for `CC1(C)CCC(CN2CCN(c3ccc(C(=O)NS(=O)(=O)c4ccc(NCC5CCOCC5)c([N+](=O)[O-])c4)c(Oc4cnc5[nH]ccc5c4)c3)CC2)=C(c2ccc(Cl)cc2)C1` [Venetoclax] + C[C@@H](Nc1cc(F)cc(F)c1)c1cc(C(=O)N(C)C)cc2c(=O)cc(N3CCOCC3)oc12 [AZD8186] (first compound max 1 µM, 7x7, partner max 3 µM), the “combination Emax” value in assay [2] was 0.315; in assay [3] it was 0.104; in assay [5] it was 0.195; in assay [6], 0.147.
The corresponding values for `CC1(C)CCC(CN2CCN(c3ccc(C(=O)NS(=O)(=O)c4ccc(NCC5CCOCC5)c([N+](=O)[O-])c4)c(Oc4cnc5[nH]ccc5c4)c3)CC2)=C(c2ccc(Cl)cc2)C1` [Venetoclax] + Cc1cc2ncnn2cc1Nc1ncc2c(n1)n(C1CCOCC1)c(=O)n2C [AZD7648] (first compound max 1 µM, 7x7, partner max 10 µM) are 0.273, 0.246, 0.357 and 0.208.
Turning to `CC1(C)CCC(CN2CCN(c3ccc(C(=O)NS(=O)(=O)c4ccc(NCC5CCOCC5)c([N+](=O)[O-])c4)c(Oc4cnc5[nH]ccc5c4)c3)CC2)=C(c2ccc(Cl)cc2)C1` [Venetoclax] + Cn1cnc2c(F)c(Nc3ccc(Br)cc3Cl)c(C(=O)NOCCO)cc21 [Selumetinib] (first compound max 1 µM, 7x7, partner max 3 µM), the “combination Emax” value was determined as 0.191 in assay [2], 0.403 in assay [3], 0.185 in assay [5] and 0.367 in assay [6].
